These are literature values, as cited in patent US20100203146A1, “INTERMITTENT DOSING STRATEGY FOR TREATING RHEUMATOID ARTHRITIS” (Callisto Pharmaceuticals, Inc., priority 2009, published 2010).

For data set [1], the system named is patients with RA. As to conditions: often observed.
Data set [2] deals with arthritis patients. Conditions: after a single dosage of 90 mg.
Data set [3] deals with RA patients. As to conditions: at the administered doses.
Setting [4] is: after 14 or 28 days of daily oral dosing.

`CN(Cc1cnc2nc(N)nc(N)c2n1)c1ccc(C(=O)N[C@@H](CCC(=O)O)C(=O)O)cc1` [Methotrexate]: the “response (improvement)” value in data set [1] is listed as “less than 50%”.
On to `CCCC1(CCC)CCC2(CCN(CCCN(CC)CC)C2)CC1` [Atiprimod, 2-(3-Diethylaminopropyl)-8,8-dipropyl-2-azaspiro[4,5]decane], for which, under setting [4], the “area under the concentration-time curve (AUC)” value is reported as “lower than expected” and the “maximum concentration (Cmax)” value was “lower than expected”. For the same compound, the half-life (in man) was about 60 days. Also, the patient-reported relief result in data set [2] is “feeling better”. In addition, in data set [3], the dose-limiting toxicity entry is recorded as “no observed dose-limiting toxicity”. Further, in data set [3] (on drug for as long as one year), the tolerability entry was “well-tolerated”.
